Source: paper PMC6934184, “Selective DNA-PKcs inhibition extends the therapeutic index of localized radiotherapy and chemotherapy” (The Journal of Clinical Investigation, 2019)

Biological target: T1, MATK (HYL) (Homo sapiens, UniProt P42679)
T1 construct: purchased Thermo Fisher Scientific (Life Technologies) SelectScreen
Assay: SelectScreen Z'LYTE
Format: biochemical
How it was run: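 NU5455 was profiled across the SelectScreen Broad panel of kinase activity and binding assays. Z'LYTE reactions such as CSF1R ran at apparent Km ATP, while the Adapta CAMK1 assay used ATP listed as 10. Values are given as percent.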

T1 sequence (P42679 whole entry): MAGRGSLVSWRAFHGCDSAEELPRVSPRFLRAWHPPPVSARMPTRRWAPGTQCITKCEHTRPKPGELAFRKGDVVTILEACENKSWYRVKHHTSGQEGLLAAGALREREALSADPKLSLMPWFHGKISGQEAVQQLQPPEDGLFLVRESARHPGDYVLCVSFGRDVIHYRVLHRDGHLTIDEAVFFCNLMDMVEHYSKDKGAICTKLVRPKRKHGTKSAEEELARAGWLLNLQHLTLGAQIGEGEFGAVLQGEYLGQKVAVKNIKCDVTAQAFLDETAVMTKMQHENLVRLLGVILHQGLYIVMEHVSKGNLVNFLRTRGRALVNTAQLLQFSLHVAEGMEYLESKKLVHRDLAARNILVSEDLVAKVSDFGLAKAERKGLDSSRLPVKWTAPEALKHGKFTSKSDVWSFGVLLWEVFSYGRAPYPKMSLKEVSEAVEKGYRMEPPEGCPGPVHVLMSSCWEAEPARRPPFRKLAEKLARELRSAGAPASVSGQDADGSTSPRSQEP

Structure (SMILES): CN(C(=O)CN1CCOCC1)c1ccc2sc3c(-c4cccc5c(=O)cc(N6CC7CCC(C6)O7)oc45)cccc3c2c1 [NU5455]
- inhibition at 1 µM: -6.3%
